Data from patent publication US20110158924A1, “PHOTO-PROTECTIVE DERMATOLOGICAL FORMULATIONS” (DermaPlus, Inc., priority 2007, published 2011).
Where two headings read alike, the source gives them in different places.

Legend:
HEK 293 cells [1] = test: Cell survival of HEK 293 cells after H2O2 stress treatment (MTT assay); assay type: cell-based, human; details: for viability at 5000 µM: Homo sapiens, read-out: Cell Survival (%); for protection of cell survival against H2O2 exposure (in words): 0.5 mM H2O2, 3 h
Method: For stress treatments, HEK 293 cells were grown to about 80% confluence. […] For testing the protective ability of other amino acids, cells were treated for 3 h with 0.5 mM H2O2 in the absence and presence of each amino acid (5 mM). Cells overexpressing PRODH, P5CS, and P5CR were incubated with H2O2 (0.5 mM) for 3 h at 37° C. after 24 h of transfection. Mild oxidative stress treatment was performed by treating HEK 293 cells with 20 μM H2O2 for 0-24 h at 37° C. […] Percent cell survival was estimated by counting live and dead cells using the 3-(4,5-dimethylthiazol-2-yl)-2,5-diphenyltetrazolium bromide (MTT) assay according to the recommendations of the manufacturer (Promega).

P5CS = P5CS (Homo sapiens, UniProt P54886); details: read-out: Km for P5CS activity; extracts of HEK 293 cells overexpressing P5CS, substrate glutamate
Chain of P5CS (P54886 1-793 isoform P54886-2): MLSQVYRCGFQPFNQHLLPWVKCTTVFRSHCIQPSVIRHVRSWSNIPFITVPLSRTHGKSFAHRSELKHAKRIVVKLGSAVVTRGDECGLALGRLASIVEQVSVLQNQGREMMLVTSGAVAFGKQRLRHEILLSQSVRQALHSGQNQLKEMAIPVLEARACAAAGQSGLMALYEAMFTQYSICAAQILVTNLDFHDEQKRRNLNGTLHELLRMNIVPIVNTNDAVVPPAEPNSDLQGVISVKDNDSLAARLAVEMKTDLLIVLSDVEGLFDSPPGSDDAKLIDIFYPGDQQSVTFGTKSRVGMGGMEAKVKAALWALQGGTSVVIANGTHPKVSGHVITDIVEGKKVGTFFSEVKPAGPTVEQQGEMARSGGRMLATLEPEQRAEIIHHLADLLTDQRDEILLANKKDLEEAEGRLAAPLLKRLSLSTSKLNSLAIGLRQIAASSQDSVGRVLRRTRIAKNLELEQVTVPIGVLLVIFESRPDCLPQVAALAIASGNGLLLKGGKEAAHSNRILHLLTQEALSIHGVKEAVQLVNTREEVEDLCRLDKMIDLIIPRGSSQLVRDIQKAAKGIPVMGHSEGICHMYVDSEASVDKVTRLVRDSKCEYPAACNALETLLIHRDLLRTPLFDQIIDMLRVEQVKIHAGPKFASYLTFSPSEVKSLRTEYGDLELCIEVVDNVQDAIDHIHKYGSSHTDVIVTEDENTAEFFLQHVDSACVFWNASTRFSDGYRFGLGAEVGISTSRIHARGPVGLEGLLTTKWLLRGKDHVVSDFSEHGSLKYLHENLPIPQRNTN
Method: (§1) P5CS activity was measured in a reaction mixture of 50 mM Tris-HCl (pH 7.0), 0-50 mM glutamate, […], 10 mM ATP, and 0.2 mM NADPH and by monitoring the oxidation of NADPH at 340 nm. P5CR activity in the cell lysate was also determined by monitoring the oxidation of NADPH at 340 nm as described in Merrill, M. J., Yeh, G. C., and Phang, J. M. (1989) J. Biol. Chem. 264, 9352-9358, which reference is incorporated herein by reference in its entirety. Background rates for each of the above assays were determined from assays using lysates of HEK 293 cells transfected with the pcDNA3.1 vector alone. Km values for each enzyme activity were estimated by varying the concentration of the substrates and non-linear regression analysis of the initial velocity vs substrate concentration.

HEK 293 cells [2] = details: H2O2 1 mM for 3 and 6 h, 5 mM proline
Method: The cell pellets were resuspended in 0.4 ml of 100 mM Tris-HCl (pH 8.5) containing 0.2% SDS, 0.2 mg/ml proteinase K and 5 mM EDTA. The cells were then incubated at 37° C. for 16 h. NaCl was next added to the cell suspension at a final concentration of 1.5 M and the nuclear debris was removed by centrifugation at room temperature. The nucleic acids in the supernatant were then precipitated using established protocols. DNA samples were analyzed by non-denaturing agarose gel electrophoresis (1.5%) and visualized by ethidium bromide staining.

HEK 293 cells [3] = details: H2O2 1 mM, proline 5 mM; H2O2 alone 55%, no stress 6%
Method: Intracellular ROS levels in HEK 293 cells were evaluated before and after H2O2 treatment by incubating PBS washed cells for 10 min with dichlorodihydrofluorescein diacetate (DCHF-DA) (20 μM) (Molecular Probes).
Quantitative ROS measurements were performed using flow cytometry. After oxidative stress treatment as described above, cells (5×10^5) were washed with PBS and incubated with DCHF-DA (0.1 mM) for 15 min in the dark at room temperature. Cells were then washed twice with PBS to remove excess DCHF-DA and resuspended in PBS containing 10 mM EDTA. The cells were then analyzed using FACScan flow cytometry (Becton-Dickinson, San Jose, Calif.). The mean fluorescence channel of each sample was calculated using FACS-equipped […] ® software and is reported as the percent fluorescence observed in the live cell population. In each assay, matching cells not treated with DCHF-DA served as a control.

P5CR = P5CR (Homo sapiens, UniProt Q96C36); details: read-out: Km for P5CR activity; extracts of HEK 293 cells overexpressing P5CR, substrate P5C
Chain of P5CR (Q96C36 whole entry): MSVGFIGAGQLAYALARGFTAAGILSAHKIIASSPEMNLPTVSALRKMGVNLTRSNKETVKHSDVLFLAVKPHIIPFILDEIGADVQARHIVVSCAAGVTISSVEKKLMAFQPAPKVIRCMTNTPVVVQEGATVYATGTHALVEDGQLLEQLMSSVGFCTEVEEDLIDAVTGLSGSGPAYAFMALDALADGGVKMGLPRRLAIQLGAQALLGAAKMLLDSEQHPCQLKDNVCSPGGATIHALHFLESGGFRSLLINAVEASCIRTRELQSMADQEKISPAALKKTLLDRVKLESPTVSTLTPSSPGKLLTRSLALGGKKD
Method: as §1

[4] = substrate: O=C(O)[C@@H]1CCCN1; test: cells, lysate or membranes named; details: other: extracts of HEK 293 cells overexpressing PRODH, substrate proline; pH 7.0
[5] = HEK293, amino acid supplement 5 mM, 0.5 mM H2O2 for 3 h at 37° C., MTT, no supplement 39, control without H2O2 97
[6] = HEK293, 3 h, amino acid supplement 5 mM, 0.5 mM H2O2 for 3 h at 37° C., MTT, no supplement 39, control without H2O2 97

N=C(N)NCCC[C@H](N)C(=O)O [arginine, reference compound]
viability at 5000 µM (HEK 293 cells [1]; HEK293, 3 h): 50%

N[C@@H](Cc1c[nH]cn1)C(=O)O [histidine]
viability at 5000 µM (HEK 293 cells [1]; [5]): 58% | protection of cell survival against H2O2 exposure (in words) (HEK 293 cells [1]; amino acid supplement 5 mM): protection against H2O2 exposure

N[C@@H](CCC(=O)O)C(=O)O [glutamate, reference compound]
Km (P5CS): ~20 mM | Cell Survival (%) (HEK 293 cells [1]; amino acid supplement 5 mM, 0.5 mM H2O2 for 3 h at 37° C., MTT, no supplement 39, control without H2O2 97): 35%

C[C@H](N)C(=O)O [alanine, reference compound]
viability at 5000 µM (HEK 293 cells [1]; [5]): 48%

N[C@@H](Cc1c[nH]c2ccccc12)C(=O)O [tryptophan]
viability at 5000 µM (HEK 293 cells [1]; HEK293, 3 h): 66% | protection of cell survival against H2O2 exposure (in words) (HEK 293 cells [1]; amino acid supplement 5 mM): increase cell survival to almost the same level as proline

N[C@@H](Cc1ccc(O)cc1)C(=O)O [tyrosine, reference compound]
viability at 5000 µM (HEK 293 cells [1]; [5]): 41%

NC(=O)CC[C@H](N)C(=O)O [glutamine, reference compound]
viability at 5000 µM (HEK 293 cells [1]; [5]): 49%

N[C@@H](CO)C(=O)O [serine]
viability at 5000 µM (HEK 293 cells [1]; [5]): 58%

N[C@@H](CS)C(=O)O [cysteine]
viability at 5000 µM (HEK 293 cells [1]; HEK293, 3 h): 68% | protection of cell survival against H2O2 exposure (in words) (HEK 293 cells [1]; amino acid supplement 5 mM): increase cell survival to almost the same level as proline

NCC(=O)O [glycine, reference compound]
viability at 5000 µM (HEK 293 cells [1]; [6]): 33%

O=C(O)[C@@H]1CCCN1 [proline]
viability at 5000 µM (HEK 293 cells [1]; [6]): ~77% | DNA laddering induced by H2O2 (HEK 293 cells [2]): lack of DNA laddering | cell fluorescence levels (fluorescent positives, indicative of ROS) (HEK 293 cells [3]): 10%

CC(C)C[C@H](N)C(=O)O [leucine, reference compound]
viability at 5000 µM (HEK 293 cells [1]; [5]): 43%

O=C(O)C1CCC=N1 (stereo not drawn) [P5C]
Km (P5CR): 15 mM

C[C@@H](O)[C@H](N)C(=O)O [threonine]
viability at 5000 µM (HEK 293 cells [1]; [5]): 59% | protection of cell survival against H2O2 exposure (in words) (HEK 293 cells [1]; amino acid supplement 5 mM): protection against H2O2 exposure

N[C@@H](Cc1ccccc1)C(=O)O [phenylalanine]
viability at 5000 µM (HEK 293 cells [1]; [5]): 51%

CC[C@H](C)[C@H](N)C(=O)O [isoleucine, reference compound]
viability at 5000 µM (HEK 293 cells [1]; [5]): 42%

NCCCC[C@H](N)C(=O)O [lysine]
viability at 5000 µM (HEK 293 cells [1]; HEK293, 3 h): 54%

CC(C)[C@H](N)C(=O)O [valine, reference compound]
viability at 5000 µM (HEK 293 cells [1]; [5]): 44%

N[C@@H](CC(=O)O)C(=O)O [aspartate, reference compound]
viability at 5000 µM (HEK 293 cells [1]; [5]): 35%

CSCC[C@H](N)C(=O)O [methionine]
viability at 5000 µM (HEK 293 cells [1]; [6]): 57% | protection of cell survival against H2O2 exposure (in words) (HEK 293 cells [1]; amino acid supplement 5 mM): protection against H2O2 exposure

NC(=O)C[C@H](N)C(=O)O [asparagine, reference compound]
viability at 5000 µM (HEK 293 cells [1]; [5]): 48%

B1: PRODH (Homo sapiens) (protein)
chain: MALRRALPALRPCIPRFVPLSTAPASREQPAAGPAAVPGGGSATAVRPPVPAVDFGNAQEAYRSRRTWELARSLLVLRLCAWPALLARHEQLLYVSRKLLGQRLFNKLMKMTFYGHFVAGEDQESIQPLLRHYRAFGVSAILDYGVEEDLSPEEAEHKEMESCTSAAERDGSGTNKRDKQYQAHWAFGDRRNGVISARTYFYANEAKCDSHMETFLRCIEASGRVSDDGFIAIKLTALGRPQFLLQFSEVLAKWRCFFHQMAVEQGQAGLAAMDTKLEVAVLQESVAKLGIASRAEIEDWFTAETLGVSGTMDLLDWSSLIDSRTKLSKHLVVPNAQTGQLEPLLSRFTEEEELQMTRMLQRMDVLAKKATEMGVRLMVDAEQTYFQPAISRLTLEMQRKFNVEKPLIFNTYQCYLKDAYDNVTLDVELARREGWCFGAKLVRGAYLAQERARAAEIGYEDPINPTYEATNAMYHRCLDYVLEELKHNAKAKVMVASHNEDTVRFALRRMEELGLHPADHRVYFGQLLGMCDQISFPLGQAGYPVYKYVPYGPVMEVLPYLSRRALENSSLMKGTHRERQLLWLELLRRLRTGNLFHRPA
Km [4]: 14 ± 0.5 mM
